Laboratory results published in the kinase profiling compilation of Christmann-Franck et al. (2016).

Columns and labels:
Test in all cases: radiometric filter-binding kinase assay, Kinase HotSpot
Settings in all cases: compound 0.5 µM; ATP 10 µM
CDK5 CDK5R1 p35 (human) = CDK5 CDK5R1 p35 (human) (UniProt Q00535+Q15078)
MKNK2 (human) = MKNK2 (human) (UniProt Q9HBH9)
LCK (human) = LCK (human) (UniProt P06239)
RPS6KA3 KD1 KD2 (human) = RPS6KA3 KD1 KD2 (human) (UniProt P51812)
HIPK1 (human) = HIPK1 (human) (UniProt Q86Z02)
SRMS (human) = SRMS (human) (UniProt Q9H3Y6)
MARK2 (human) = MARK2 (human) (UniProt Q7KZI7)
CAMK2D (human) = CAMK2D (human) (UniProt Q13557)
CLK2 (human) = CLK2 (human) (UniProt P49760)
PRKCB2 (human) = PRKCB2 (human) (UniProt P05771)
MAP4K4 (human) = MAP4K4 (human) (UniProt O95819)
GRK6 (human) = GRK6 (human) (UniProt P43250)
EGFR (human) = EGFR (human) (UniProt P00533)
CDK2 CCNE1 (human) = CDK2 CCNE1 (human) (UniProt P24941+P24864)
VRK1 (human) = VRK1 (human) (UniProt Q99986)
TSSK2 (human) = TSSK2 (human) (UniProt Q96PF2)
PAK1 (human) = PAK1 (human) (UniProt Q13153)
MARK4 (human) = MARK4 (human) (UniProt Q96L34)
PRKCB1 (human) = PRKCB1 (human) (UniProt P05771)
MUSK (human) = MUSK (human) (UniProt O15146)
PDPK1 (human) = PDPK1 (human) (UniProt O15530)
HIPK4 (human) = HIPK4 (human) (UniProt Q8NE63)
CLK4 (human) = CLK4 (human) (UniProt Q9HAZ1)
PAK6 (human) = PAK6 (human) (UniProt Q9NQU5)
LIMK1 (human) = LIMK1 (human) (UniProt P53667)
EPHA2 (human) = EPHA2 (human) (UniProt P29317)
FER (human) = FER (human) (UniProt P16591)
NLK (human) = NLK (human) (UniProt Q9UBE8)
EPHB1 (human) = EPHB1 (human) (UniProt P54762)
MAPKAPK2 (human) = MAPKAPK2 (human) (UniProt P49137)
TTK (human) = TTK (human) (UniProt P33981)
GRK4 (human) = GRK4 (human) (UniProt P32298)
EPHA3 (human) = EPHA3 (human) (UniProt P29320)
TAOK3 (human) = TAOK3 (human) (UniProt Q9H2K8)
MAPKAPK5 (human) = MAPKAPK5 (human) (UniProt Q8IW41)
DCLK2 (human) = DCLK2 (human) (UniProt Q8N568)
GSK3B (human) = GSK3B (human) (UniProt P49841)
MAPKAPK3 (human) = MAPKAPK3 (human) (UniProt Q16644)
MAP4K2 (human) = MAP4K2 (human) (UniProt Q12851)
STK39 (human) = STK39 (human) (UniProt Q9UEW8)
DAPK2 (human) = DAPK2 (human) (UniProt Q9UIK4)
AXL (human) = AXL (human) (UniProt P30530)

RPS6KA3 KD1 KD2 (human), sequence (P51812 whole entry, looked up): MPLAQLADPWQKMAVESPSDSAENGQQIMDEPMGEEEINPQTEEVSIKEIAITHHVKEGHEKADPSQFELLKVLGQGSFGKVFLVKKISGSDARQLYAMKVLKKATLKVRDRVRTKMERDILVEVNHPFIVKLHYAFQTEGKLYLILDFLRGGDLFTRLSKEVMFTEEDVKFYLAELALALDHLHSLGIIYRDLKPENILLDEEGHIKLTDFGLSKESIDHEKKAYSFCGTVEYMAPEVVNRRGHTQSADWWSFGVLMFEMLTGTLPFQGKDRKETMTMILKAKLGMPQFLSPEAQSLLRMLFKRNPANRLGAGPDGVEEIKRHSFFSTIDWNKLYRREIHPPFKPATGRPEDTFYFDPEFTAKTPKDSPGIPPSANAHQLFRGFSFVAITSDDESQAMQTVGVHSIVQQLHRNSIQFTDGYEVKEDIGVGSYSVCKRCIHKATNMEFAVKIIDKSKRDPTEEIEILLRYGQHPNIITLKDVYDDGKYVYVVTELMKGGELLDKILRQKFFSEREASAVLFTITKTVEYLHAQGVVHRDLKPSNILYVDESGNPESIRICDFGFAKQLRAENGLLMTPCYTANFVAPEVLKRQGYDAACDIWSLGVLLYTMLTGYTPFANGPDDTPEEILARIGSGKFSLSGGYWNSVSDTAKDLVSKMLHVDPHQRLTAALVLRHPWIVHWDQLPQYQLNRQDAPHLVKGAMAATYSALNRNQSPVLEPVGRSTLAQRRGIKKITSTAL
EPHB1 (human), sequence (P54762 whole entry, looked up): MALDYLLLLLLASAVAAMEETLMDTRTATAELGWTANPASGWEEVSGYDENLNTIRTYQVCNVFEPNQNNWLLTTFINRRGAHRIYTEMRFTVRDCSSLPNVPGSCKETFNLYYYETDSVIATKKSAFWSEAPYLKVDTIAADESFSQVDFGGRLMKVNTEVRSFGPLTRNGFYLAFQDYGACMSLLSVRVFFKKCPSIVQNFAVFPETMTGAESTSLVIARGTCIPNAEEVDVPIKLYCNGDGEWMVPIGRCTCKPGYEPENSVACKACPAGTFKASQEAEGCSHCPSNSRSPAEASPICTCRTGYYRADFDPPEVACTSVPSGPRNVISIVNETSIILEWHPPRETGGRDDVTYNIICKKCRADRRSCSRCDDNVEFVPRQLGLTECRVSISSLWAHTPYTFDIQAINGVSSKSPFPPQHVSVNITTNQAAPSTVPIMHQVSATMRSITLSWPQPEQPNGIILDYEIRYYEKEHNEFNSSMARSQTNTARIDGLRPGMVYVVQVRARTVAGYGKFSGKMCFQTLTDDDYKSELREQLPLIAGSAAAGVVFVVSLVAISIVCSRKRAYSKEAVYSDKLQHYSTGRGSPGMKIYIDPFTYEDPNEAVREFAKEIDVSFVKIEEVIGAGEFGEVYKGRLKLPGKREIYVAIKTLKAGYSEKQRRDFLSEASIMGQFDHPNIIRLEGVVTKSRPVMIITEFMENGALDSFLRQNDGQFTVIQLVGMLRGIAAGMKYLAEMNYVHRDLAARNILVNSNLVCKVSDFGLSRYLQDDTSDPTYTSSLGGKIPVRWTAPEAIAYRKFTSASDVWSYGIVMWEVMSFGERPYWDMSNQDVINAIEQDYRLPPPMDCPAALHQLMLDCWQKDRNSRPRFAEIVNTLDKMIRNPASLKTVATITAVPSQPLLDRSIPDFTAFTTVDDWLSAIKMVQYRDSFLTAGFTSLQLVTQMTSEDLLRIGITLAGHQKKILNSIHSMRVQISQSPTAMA
DCLK2 (human), sequence (Q8N568 whole entry, looked up): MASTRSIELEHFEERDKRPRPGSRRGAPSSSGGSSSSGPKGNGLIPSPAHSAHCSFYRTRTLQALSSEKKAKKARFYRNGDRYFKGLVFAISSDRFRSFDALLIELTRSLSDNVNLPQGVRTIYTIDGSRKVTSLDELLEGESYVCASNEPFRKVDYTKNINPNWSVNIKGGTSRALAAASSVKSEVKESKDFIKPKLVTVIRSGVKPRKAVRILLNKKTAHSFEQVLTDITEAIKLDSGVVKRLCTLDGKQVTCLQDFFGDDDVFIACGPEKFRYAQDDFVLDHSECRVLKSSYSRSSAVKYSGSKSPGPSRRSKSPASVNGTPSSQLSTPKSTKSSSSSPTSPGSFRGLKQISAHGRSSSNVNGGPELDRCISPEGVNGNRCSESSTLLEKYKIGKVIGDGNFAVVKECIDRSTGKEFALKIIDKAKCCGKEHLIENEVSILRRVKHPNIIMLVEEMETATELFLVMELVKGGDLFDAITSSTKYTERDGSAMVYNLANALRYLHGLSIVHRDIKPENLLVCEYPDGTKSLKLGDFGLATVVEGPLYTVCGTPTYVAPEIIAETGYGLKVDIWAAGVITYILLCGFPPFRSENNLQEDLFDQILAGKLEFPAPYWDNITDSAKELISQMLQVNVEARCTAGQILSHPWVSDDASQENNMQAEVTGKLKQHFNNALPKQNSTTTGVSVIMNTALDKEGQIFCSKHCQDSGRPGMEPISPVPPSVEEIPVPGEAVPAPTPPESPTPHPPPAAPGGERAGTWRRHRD
MAPKAPK5 (human), sequence (Q8IW41 whole entry, looked up): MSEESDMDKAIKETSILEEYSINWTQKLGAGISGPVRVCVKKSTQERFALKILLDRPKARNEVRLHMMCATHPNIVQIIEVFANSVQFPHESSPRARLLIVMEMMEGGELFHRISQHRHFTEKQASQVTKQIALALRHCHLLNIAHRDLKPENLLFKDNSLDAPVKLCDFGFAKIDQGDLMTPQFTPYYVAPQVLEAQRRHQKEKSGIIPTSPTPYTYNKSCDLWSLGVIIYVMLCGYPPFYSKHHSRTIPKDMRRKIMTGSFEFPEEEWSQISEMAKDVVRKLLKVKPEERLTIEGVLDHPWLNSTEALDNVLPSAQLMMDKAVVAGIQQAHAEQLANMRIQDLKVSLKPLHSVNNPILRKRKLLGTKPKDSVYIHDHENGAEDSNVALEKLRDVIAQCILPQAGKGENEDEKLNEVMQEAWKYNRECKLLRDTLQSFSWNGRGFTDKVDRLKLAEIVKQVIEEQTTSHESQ
EGFR (human), sequence (P00533 whole entry, looked up): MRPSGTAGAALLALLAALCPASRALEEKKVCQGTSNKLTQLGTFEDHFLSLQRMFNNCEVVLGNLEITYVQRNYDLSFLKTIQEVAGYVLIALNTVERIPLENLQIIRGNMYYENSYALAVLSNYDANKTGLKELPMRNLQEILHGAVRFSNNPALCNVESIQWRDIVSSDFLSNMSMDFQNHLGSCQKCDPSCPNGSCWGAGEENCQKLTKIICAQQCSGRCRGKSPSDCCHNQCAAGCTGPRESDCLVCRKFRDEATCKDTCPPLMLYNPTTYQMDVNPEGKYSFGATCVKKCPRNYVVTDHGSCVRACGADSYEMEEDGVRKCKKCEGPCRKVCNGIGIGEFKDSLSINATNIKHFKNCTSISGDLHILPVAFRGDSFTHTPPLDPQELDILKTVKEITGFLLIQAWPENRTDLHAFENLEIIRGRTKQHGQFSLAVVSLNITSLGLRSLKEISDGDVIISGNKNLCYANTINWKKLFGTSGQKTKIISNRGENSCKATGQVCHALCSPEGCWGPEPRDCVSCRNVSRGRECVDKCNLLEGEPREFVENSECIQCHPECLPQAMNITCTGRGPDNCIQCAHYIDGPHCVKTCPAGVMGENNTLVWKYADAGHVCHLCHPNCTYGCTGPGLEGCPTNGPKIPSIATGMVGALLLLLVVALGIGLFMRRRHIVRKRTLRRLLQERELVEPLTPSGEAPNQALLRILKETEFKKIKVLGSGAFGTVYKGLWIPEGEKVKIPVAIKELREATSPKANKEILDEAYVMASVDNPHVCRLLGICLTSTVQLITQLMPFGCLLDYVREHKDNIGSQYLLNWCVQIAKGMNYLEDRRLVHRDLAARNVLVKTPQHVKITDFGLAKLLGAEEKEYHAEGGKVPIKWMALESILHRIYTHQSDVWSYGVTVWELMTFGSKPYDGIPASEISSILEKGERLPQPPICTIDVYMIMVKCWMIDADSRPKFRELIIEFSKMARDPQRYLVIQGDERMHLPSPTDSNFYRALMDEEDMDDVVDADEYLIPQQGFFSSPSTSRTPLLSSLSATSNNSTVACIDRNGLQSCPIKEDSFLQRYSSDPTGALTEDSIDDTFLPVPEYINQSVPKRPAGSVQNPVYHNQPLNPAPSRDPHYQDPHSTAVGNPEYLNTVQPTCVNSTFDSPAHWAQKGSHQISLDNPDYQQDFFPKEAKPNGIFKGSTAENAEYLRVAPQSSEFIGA
PAK6 (human), sequence (Q9NQU5 whole entry, looked up): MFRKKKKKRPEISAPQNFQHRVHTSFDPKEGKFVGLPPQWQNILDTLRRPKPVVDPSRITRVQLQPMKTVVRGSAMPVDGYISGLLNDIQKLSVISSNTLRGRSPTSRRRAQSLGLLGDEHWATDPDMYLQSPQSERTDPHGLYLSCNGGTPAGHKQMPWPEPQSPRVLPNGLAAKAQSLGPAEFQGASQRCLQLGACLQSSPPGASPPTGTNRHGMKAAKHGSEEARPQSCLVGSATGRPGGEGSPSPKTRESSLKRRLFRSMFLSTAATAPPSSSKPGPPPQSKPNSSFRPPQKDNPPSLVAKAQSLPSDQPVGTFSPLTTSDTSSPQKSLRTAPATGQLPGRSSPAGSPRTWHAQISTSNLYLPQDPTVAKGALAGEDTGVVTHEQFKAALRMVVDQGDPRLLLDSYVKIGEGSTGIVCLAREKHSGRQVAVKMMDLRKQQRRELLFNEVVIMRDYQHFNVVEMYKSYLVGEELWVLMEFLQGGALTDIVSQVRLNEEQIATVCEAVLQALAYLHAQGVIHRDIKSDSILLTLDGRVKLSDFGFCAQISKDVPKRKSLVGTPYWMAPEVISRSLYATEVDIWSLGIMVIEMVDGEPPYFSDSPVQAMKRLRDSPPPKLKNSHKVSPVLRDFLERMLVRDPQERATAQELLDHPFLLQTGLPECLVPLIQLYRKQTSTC

## O=C1C(Cl)=C(N2C(=O)CCC2=O)C(=O)c2ccccc21
CDK5 CDK5R1 p35 (human)
  residual activity: 93.7%
MKNK2 (human)
  residual activity: 84.5%
LCK (human)
  residual activity: 106%
RPS6KA3 KD1 KD2 (human)
  residual activity: 101%
HIPK1 (human)
  residual activity: 104%
SRMS (human)
  residual activity: 108%
MARK2 (human)
  residual activity: 79.4%
CAMK2D (human)
  residual activity: 109%
CLK2 (human)
  residual activity: 90.7%
PRKCB2 (human)
  residual activity: 108%
MAP4K4 (human)
  residual activity: 93.7%
GRK6 (human)
  residual activity: 98.5%
EGFR (human)
  residual activity: 98.4%
CDK2 CCNE1 (human)
  residual activity: 90.3%
VRK1 (human)
  residual activity: 92.4%
TSSK2 (human)
  residual activity: 103%
PAK1 (human)
  residual activity: 96.3%
MARK4 (human)
  residual activity: 99.6%
PRKCB1 (human)
  residual activity: 92.1%
MUSK (human)
  residual activity: 104%
PDPK1 (human)
  residual activity: 100%
HIPK4 (human)
  residual activity: 98.2%
CLK4 (human)
  residual activity: 94.1%
PAK6 (human)
  residual activity: 89.6%
LIMK1 (human)
  residual activity: 92.5%
EPHA2 (human)
  residual activity: 107%
FER (human)
  residual activity: 103%
NLK (human)
  residual activity: 105%
EPHB1 (human)
  residual activity: 97.2%
MAPKAPK2 (human)
  residual activity: 105%
TTK (human)
  residual activity: 108%
GRK4 (human)
  residual activity: 97.6%
EPHA3 (human)
  residual activity: 105%
TAOK3 (human)
  residual activity: 95.3%
MAPKAPK5 (human)
  residual activity: 73.6%
DCLK2 (human)
  residual activity: 100%
GSK3B (human)
  residual activity: 100%
MAPKAPK3 (human)
  residual activity: 103%
MAP4K2 (human)
  residual activity: 89.6%
STK39 (human)
  residual activity: 97.3%
DAPK2 (human)
  residual activity: 133%

## CN(C)S(=O)(=O)c1ccc2c(c1)/C(=C/c1cc3c([nH]1)CCCC3)C(=O)N2
CDK5 CDK5R1 p35 (human)
  residual activity: 76.9%
MKNK2 (human)
  residual activity: 84.1%
AXL (human)
  residual activity: 39.7%
LCK (human)
  residual activity: 34.7%
RPS6KA3 KD1 KD2 (human)
  residual activity: 70.1%
SRMS (human)
  residual activity: 104%
MARK2 (human)
  residual activity: 61.7%
CAMK2D (human)
  residual activity: 73.2%
CLK2 (human)
  residual activity: 32.1%
PRKCB2 (human)
  residual activity: 92%
MAP4K4 (human)
  residual activity: 46.1%
GRK6 (human)
  residual activity: 82.6%
EGFR (human)
  residual activity: 93.4%
CDK2 CCNE1 (human)
  residual activity: 85.5%
VRK1 (human)
  residual activity: 104%
TSSK2 (human)
  residual activity: 91.8%
PAK1 (human)
  residual activity: 96.1%
MARK4 (human)
  residual activity: 51.5%
PRKCB1 (human)
  residual activity: 106%
MUSK (human)
  residual activity: 82.8%
HIPK4 (human)
  residual activity: 98.8%
CLK4 (human)
  residual activity: 50.7%
PAK6 (human)
  residual activity: 98.9%
LIMK1 (human)
  residual activity: 60.7%
EPHA2 (human)
  residual activity: 96.5%
FER (human)
  residual activity: 51.8%
NLK (human)
  residual activity: 99.7%
EPHB1 (human)
  residual activity: 82.8%
MAPKAPK2 (human)
  residual activity: 101%
TTK (human)
  residual activity: 89.7%
GRK4 (human)
  residual activity: 79.8%
EPHA3 (human)
  residual activity: 98.6%
TAOK3 (human)
  residual activity: 55.4%
MAPKAPK5 (human)
  residual activity: 99.8%
DCLK2 (human)
  residual activity: 72%
GSK3B (human)
  residual activity: 95.6%
MAPKAPK3 (human)
  residual activity: 100%
MAP4K2 (human)
  residual activity: 20.8%
STK39 (human)
  residual activity: 99.5%
DAPK2 (human)
  residual activity: 93.5%
